Measurements published in patent US20210052741A1, “GENE THERAPY METHODS AND COMPOSITIONS USING AUXOTROPHIC REGULATABLE CELLS” (AUXOLYTIC LTD, priority 2018, published 2021).
Where “and” joins values, the source holds several entries; their conditions need not be identical. Equal values may be shown once.

Columns and labels:
Assay type in all cases: cell-based, human
[1] = tested on: UMPS knockout T cells; assay: Cell counts after recovery post-electroporation; conditions: 4 days recovery post electroporation, no serum, with 5-FOA
Protocol: (§1) K562 cells (acquired from ATCC) and Nalm6 cells (kindly provided by C. Mackall) were cultured in RPMI 1640 (HyClone) supplemented with 10% bovine growth serum, 2 mM L-glutamine and 100 U/ml Penicillin and 100 U/ml Streptomycin. T cells were either used fresh after isolation from buffy coats obtained from healthy donors. T cells were isolated through a Ficoll density gradient centrifugation followed by magnetic enrichment using the Pan T Cell Isolation Kit (Miltenyi Biotec).
(§2) Cells were cryopreserved in BAMBANKER™ medium. After thawing cells were cultured at 37° C., 5% CO2 in X-Vivo 15 (Lonza) supplemented with or without 5% human serum (Sigma-Aldrich) and […] recombinant IL-2 (Peprotech) and 10 ng/ml human recombinant IL-7 (BD Biosciences). […]
(§3) Genomic DNA was harvested using QUICKEXTRACT™ DNA Extraction Kit (Epicentre). Cells were counted on an automated cell counter using Trypan blue staining or on a CytoFLEX flow cytometer (Beckman Coulter) with automatic plate reader using COUNTBRIGHT™ beads (ThermoFisher) as a reference for normalizing the values. Alternatively, cells were analyzed after staining with fluorochrome-labelled antibodies (Biolegend) on an ACCURI™ C6 flow cytometer (BD Biosciences), which also measures volumes, or a FACS ARIA™ II SORP cell sorter (BD Biosciences). Data was analyzed using Excel (Microsoft) and FlowJo software (Tree Star). […]

[2] = tested on: mock edited T cells; assay: Cell counts after recovery post-electroporation; conditions: 4 days recovery post electroporation, no serum, with 5-FOA
Protocol: as §1, §2, §3

[3] = tested on: UMPS^KO/KO T cells mixed with wild-type T cells; assay: 5-FOA selection in mixed T cell population
Excerpt: To evaluate the possibility to select for UMPS^KO/KO cells with 5-FOA, the sorted cells were mixed with wild-type cells, which were labeled with different tracking dyes, and cultured in the presence or absence of 5-FOA. In part of the samples, 5-FOA was only added on the first day (Day 0) while in another group it was supplemented daily. Table 30 and FIG. 7C show the percent (%) of the UMPS-KO T cells (labelled with eFluor670) over time when culturing with or without 5-FOA.
In fact, FACS analysis of a culture of a mixed population of UMPS knockout and wild-type T cells with 5-FOA. UMPS-KO T cells were labeled with eFluor670, and wild-type cells were labeled with carboxyfluorescein succinimidyl ester (CFSE). […] On Day 0 in the control group not treated with 5-FOA, 47.7% of the cells were UMPS-KO T cells, and 52.1% were wild-type cells. On Day 3 in the group with 5-FOA supplemented daily, 74.0% of the cells were UMPS-KO T cells, while 25.8% were wild-type cells. On Day 3 in the control group not treated with 5-FOA, 43.1% of the cells were UMPS-KO T cells, and 56.4% were wild-type cells.

[4] = tested on: UMPS^KO/KO/GFP^+ K562 cells; assay: Auxotrophy assay in K562 cells
Protocol: The sorted UMPS^KO/KO/GFP^+ cell population were subjected to assays evaluating their auxotrophy and their resistance to 5-FOA. The cells were split into samples of equal numbers and cultured in the presence of different concentrations of Uridine or without. […] Cell growth was inhibited at a lower concentration (25 μg/ml) while cell numbers declined with a lower concentration or no Uridine (FIG. 6E).

[5] = tested on: UMPS^KO/KO Nalm6 cells; assay: Growth curves of Nalm6 cells with uridine; conditions: for Cell counts, Day 0 / Cell counts, Day 1 / Cell counts, Day 2 / Cell counts, Day 3 / Cell counts, Day 4 / Cell counts, Day 5 / Cell counts, Day 6 / Cell counts, Day 7: UMPS^KO/KO
Protocol: The same experiment was performed with Nalm6 cells and a similar dependency on the uridine concentration in the culture was observed that was not visible for cells with intact UMPS. Table 25 provides data of growth curves of UMPS^KO/KO Nalm6 cells cultured with different uridine concentrations. No difference was observed between the groups receiving uridine supplement treatment and those not for wild-type cells.

[6] = tested on: Mock T cells; assay: Uracil auxotrophy growth assay after 5-FOA selection; conditions: after 4 days 5-FOA selection, 4 days in supplemented media, without serum
Protocol: To assay whether or not the cells selected for by 5-FOA treatment were uracil auxotrophs, mock or UMPS targeted T cells were exposed to 5-FOA as shown in Example 4. Following 4 days of 5-FOA selection, the population of cells was split into an uracil containing media (UMP, uridine or both) and an uracil deficient media. A growth assay was subsequently performed by cell counting after following 4 days incubation in test media (Day 8) (FIG. 4A). In all cases, cell growth in the mock targeted cell cultures was negligible and independent of uracil source supplementation—indicating successful killing of non-UMPS targeted cells during the 5-FOA selection step (FIG. 4B-FIG. 4D).

O=C(O)c1[nH]c(=O)[nH]c(=O)c1F [5-FOA, 5-fluoroorotic acid]
Intact cells (absolute) [1]: 395
Intact cells (absolute) [2]: 580
Percent of UMPS^KO/KO cells in mixed cell population, Day 0 ([3]; 5-FOA Day 0 only): 43.7% and 43.2%
Percent of UMPS^KO/KO cells in mixed cell population, Day 1 ([3]; 5-FOA Day 0 only): 59.2% and 55.6% and 50.8%
Percent of UMPS^KO/KO cells in mixed cell population, Day 3 ([3]; 5-FOA Day 0 only): 67.2% and 68.6% and 67.8%
Percent of UMPS^KO/KO cells in mixed cell population, Day 0 ([3]; 5-FOA daily): 43.2%
Percent of UMPS^KO/KO cells in mixed cell population, Day 1 ([3]; 5-FOA daily): 58.5% and 55.4% and 54.5%
Percent of UMPS^KO/KO cells in mixed cell population, Day 3 ([3]; 5-FOA daily): 70.7% and 69.2%
percent wild-type cells in mixed population, Day 0 ([3]; 5-FOA only on the first day (Day 0), FACS): 56.0%
percent wild-type cells in mixed population, Day 3 ([3]; 5-FOA supplemented daily, FACS): 25.8%
percent of UMPS-KO T cells, treated vs untreated group ([3]; unpaired t test): significant increase in the percent of UMPS-KO T cells

O=c1ccn([C@@H]2O[C@H](CO)[C@@H](O)[C@H]2O)c(=O)[nH]1 [Uridine]
Number of cells per ml, Day 1 ([4]; 2.5 ug/ml Uridine): 57.83 cells per ml and 49.52 cells per ml and 40.56 cells per ml
Number of cells per ml, Day 1 ([4]; 25 ug/ml Uridine): 60.92 cells per ml and 69.81 cells per ml and 58.10 cells per ml
Number of cells per ml, Day 1 ([4]; 250 ug/ml Uridine): 83.41 cells per ml and 109.11 cells per ml and 64.28 cells per ml
Number of cells per ml, Day 8 ([4]; 250 ug/ml Uridine): 631.12 cells per ml and 629.35 cells per ml and 318.17 cells per ml
cell growth ([4]; Uridine 25 μg/ml): inhibited
cell growth ([4]; Uridine 250 μg/ml): expanded rapidly
cell numbers ([4]; lower Uridine concentration (2.5 μg/ml) or no Uridine): declined
Cell counts, Day 0 ([5]; 2.5 μg/ml uridine): 20121 and 29155 and 28090
Cell counts, Day 1 ([5]; 2.5 μg/ml uridine): 42194 and 38023 and 40650
Cell counts, Day 2 ([5]; 2.5 μg/ml uridine): 69808 and 88300 and 87146
Cell counts, Day 3 ([5]; 2.5 μg/ml uridine): 70287 and 70547 and 78663
Cell counts, Day 4 ([5]; 2.5 μg/ml uridine): 80625 and 81737 and 79012
Cell counts, Day 5 ([5]; 2.5 μg/ml uridine): 193482 and 188952 and 193913
Cell counts, Day 6 ([5]; 2.5 μg/ml uridine): 380782 and 383866 and 377748
Cell counts, Day 7 ([5]; 2.5 μg/ml uridine): 755497 and 796763 and 793429
Cell counts, Day 0 ([5]; 25 μg/ml uridine): 14984 and 18952 and 14400
Cell counts, Day 1 ([5]; 25 μg/ml uridine): 21277 and 25189 and 19688
Cell counts, Day 2 ([5]; 25 μg/ml uridine): 69085 and 68027 and 71301
Cell counts, Day 3 ([5]; 25 μg/ml uridine): 142944 and 176018 and 189125
Cell counts, Day 4 ([5]; 25 μg/ml uridine): 388585 and 324708 and 395062
Cell counts, Day 5 ([5]; 25 μg/ml uridine): 1624178 and 1360329
Cell counts, Day 6 ([5]; 25 μg/ml uridine): 3646724 and 3386243 and 3792593
Cell counts, Day 7 ([5]; 25 μg/ml uridine): 7293447 and 5746352 and 6538953
Cell counts, Day 0 ([5]; 250 μg/ml uridine): 20704 and 24510 and 29762
Cell counts, Day 1 ([5]; 250 μg/ml uridine): 37175 and 35461 and 30769
Cell counts, Day 2 ([5]; 250 μg/ml uridine): 101781 and 106667 and 112045
Cell counts, Day 3 ([5]; 250 μg/ml uridine): 210805 and 265340 and 257649
Cell counts, Day 4 ([5]; 250 μg/ml uridine): 551249 and 564374
Cell counts, Day 5 ([5]; 250 μg/ml uridine): 2072099 and 2343280 and 1844675
Cell counts, Day 6 ([5]; 250 μg/ml uridine): 3792593 and 4514991 and 4122383
Cell counts, Day 7 ([5]; 250 μg/ml uridine): 7585185 and 6320988 and 7901235
growth ([5]; groups supplemented with uridine, especially 25 and 250 μg/ml): Significantly greater growth
Cells counts on Day 8 [6]: 1249 and 687
